Data from article PMC7503713, “GANT61 Reduces Hedgehog Molecule (GLI1) Expression and Promotes Apoptosis in Metastatic Oral Squamous Cell Carcinoma Cells” (International Journal of Molecular Sciences, 2020).

Tests used:
Format in all cases: cell-based, human
[1] = tested on: HSC3 cells; experiment: Phosphatidylserine externalization by flow cytometry (annexin V-FITC/PI)
Protocol: (§1) To study the effects of GANT61 on HSC3 cell viability, cycle, and death patterns, 4 mL of cellular solution (containing 0.7 × 10^5 cells/mL) was placed on 6-well plates and incubated overnight, to allow adhesion. […] For cell cycle analysis, the effects of GANT61 on HSC3 cells were also evaluated after 12 h of treatment. Negative controls were treated with the vehicle (0.2% DMSO) used to dilute the GLI inhibitor, and 5-fluorouracil (5-FU, 17 μM) was used as a positive control. All experiments were carried out in duplicate and repeated no less than three times. Cell viability was determined by the trypan blue exclusion method, in which 90 μL aliquots were collected at several incubation periods, stained with 10 μL trypan blue, and counted in a Neubauer chamber, under optical microscopy, at 20× magnification (Olympus CX41 Olympus, Tokyo, Japan).
Following treatment with GANT61, cells were labeled with annexin V-FITC and PI to determine cell viability (classified as viable, early apoptosis, late apoptosis, and necrosis), according to the manufacturer’s protocol (Becton Dickinson Biosciences, San José, CA, USA). Cells were acquired (10,000 events/sample) and analyzed on a BD LSRFortessa flow cytometer, using BD FACSDiva software version 6.2 (Becton Dickinson Biosciences, San José, CA, USA). The proportion of cells undergoing apoptosis was determined by the percentage of annexin labeling as quantified by the FlowJo program, version 10 (Flowjo LCC, Ashland, OR, USA). Cellular debris was omitted from our analyses.

[2] = tested on: SCC9; experiment: alamarBlue cytotoxicity assay, SCC9
Protocol: (§2) To assess the cytotoxicity of the GLI inhibitor GANT61 (Sigma-Aldrich, St. Louis, MO, USA) in tumor and non-tumor cell lines, an alamarBlue assay (Sigma-Aldrich Chemical Co, St. Louis, MO, USA) was performed after 72 h of exposure to the inhibitor, as described by Ahmed et al., 1994 [46]. Cells were distributed on 96-well plates at a density of 7 × 10^4 cells/mL for adhered cells, and 3 × 10^5 cells/mL for cells in suspension. All tested compounds were dissolved in DMSO, added to wells containing 100 µL of cells in complete medium, and then incubated for 72 h. Eight concentrations of GANT61 (0.19 to 50 µg/mL), Doxorubicin (Laboratory IMA S.A.I.C., Buenos Aires, Argentina), and 5-Fluorouracil (5-FU, Sigma-Aldrich, St. Louis, MO, USA), both used as positive controls at concentrations ranging from 0.03 to 5 µg/mL, were added to respective wells. Cells treated with the vehicle (0.5% DMSO) used to dilute the tested compounds were used as negative controls. Before the end of the incubation period (4 h for cell lines and 24 h for PBMCs), 20 µL of alamarBlue stock solution (resazurin, Sigma-Aldrich, St. Louis, MO, USA) was added to each well. Absorbance was measured at 570 nm (reduced) and 595 nm (oxidized) wavelengths, using a Spectramax 190 plate reader (Molecular Devices; Sunnyvale, CA, USA).
(§3) Statistical analyses were performed, using GraphPad Prism v. 6.03 (GraphPad Software, Inc., San Diego, USA). Data were analyzed according to distribution along the normal Gaussian curve. IC50 values were obtained through non-linear regression, using results from three independent experiments carried out in duplicate. Differences between groups resulting from in vitro assays were evaluated by ANOVA (analysis of variance) testing, followed by the Student–Newman–Keuls test. This study considered a level of significance, corresponding to alpha (α) or “p” value, when results were less than or equal to 5%.

[3] = tested on: HSC3 cells; experiment: Trypan blue exclusion cell viability assay
Protocol: as §1

[4] = tested on: K562; experiment: alamarBlue cytotoxicity assay, K562; settings: 72 h of incubation
Protocol: as §2, §3

[5] = tested on: HSC3 cells; experiment: Morphological analysis by flow cytometry (FSC/SSC)
Protocol: as §1
Morphological analysis of HSC3 cells was performed by flow cytometry, using FSC (size/volume) and SSC (granularity) parameters (FACSDiva). Cells were acquired (10,000 events/sample) and analyzed on a BD LSRFortessa flow cytometer, using the BD FACSDiva software version 6.2 (Becton Dickinson Biosciences, San José, CA, USA). Cellular debris was omitted from our analyses.

[6] = tested on: HSC3 cells; experiment: Cell cycle and internucleosomal DNA fragmentation by flow cytometry (PI); settings: for cells in S and G2/M phases: ≥48 h
Protocol: as §1
Cellular nuclear DNA content was evaluated by flow cytometry, to differentiate among cell cycle phases, using PI (propidium iodide) as a fluorogenic agent. Following incubation with the GLI inhibitor, the supernatant was collected, and wells were washed with saline. Next, cells were trypsinized, then centrifuged (295× g for 5 min) together with the supernatant. Permeabilization was carried out by using a solution (300 µL) containing 0.1% triton X-100, 0.1% sodium citrate and 2 μg/mL of PI and 100 µg/mL RNase in distilled water, placed under dark conditions, at room temperature, for 30 min. Cells were then acquired (10,000 events/sample) and analyzed on a BD LSRFortessa flow cytometer, using BD FACSDiva software version 6.2 (Becton Dickinson Biosciences, San José, CA, USA). Proportions of fragmented internucleosomal DNA and cell cycle phases were determined by using Flowjo software v. 10 (Flowjo LCC, Ashland, OR, USA). Cells in sub-G1 phase were considered to present internucleosomal DNA fragmentation. Cellular debris was omitted from our analysis.

[7] = tested on: CAF 1; experiment: alamarBlue cytotoxicity assay, cancer-associated fibroblasts CAF 1; settings: CAF 1, alamarBlue, 72 h of incubation
Protocol: Two cancer-associated fibroblast populations (CAF1 and CAF2) were obtained as described by Sobral et al. (2011), from fragments of squamous cell carcinoma of the tongue that were removed from patients seen at the UNICAMP School of Dentistry in Piracicaba, São Paulo, Brazil.
Specimens were washed with PBS, fragmented, and placed in 25 cm^2 cell culture flasks containing 1 mL of DMEM medium supplemented with 10% FBS and an antibiotic, and then maintained in an incubator, at 37 °C, under 5% CO2. Cell growth was monitored daily, and the medium was replaced every 2–3 days. […] Type I collagen production as assessed by ELISA was also used as a marker of myofibroblast activity. Both CAF1 and CAF2 primary populations were maintained for a maximum of 12 passages, with CAF phenotype maintenance evaluated through immunocytochemical staining for the α-SMA antibody after each two passages. […]
To assess the cytotoxicity of the GLI inhibitor GANT61 (Sigma-Aldrich, St. Louis, MO, USA) in tumor and non-tumor cell lines, an alamarBlue assay (Sigma-Aldrich Chemical Co, St. Louis, MO, USA) was performed after 72 h of exposure to the inhibitor, as described by Ahmed et al., 1994 [46]. […] Absorbance was measured at 570 nm (reduced) and 595 nm (oxidized) wavelengths, using a Spectramax 190 plate reader (Molecular Devices; Sunnyvale, CA, USA). […]

Structure (SMILES) | cell apoptosis ([1]; 5-FU positive control, only after 72 h) | IC50 ([2]; Homo sapiens, SCC-9, 72 h of incubation) [µM] | number of viable cells ([3]; 17 µM, all incubation times) | IC50 ([4]; Homo sapiens) [µM] | cell morphology (FSC/SSC) ([5]; HSC3, 17 µM) | cells in S and G2/M phases ([6]; 5-FU positive control) | IC50 ([7]; Homo sapiens, Fibroblast) [µM] | cell apoptosis ([1]; 18 µM, 48 and 72 h) | exposure of phosphatidylserine on HSC3 cell surfaces ([1]; 36 µM, all times evaluated, vs DMSO (0.2%)) | IC50 ([2]; 72 h of incubation) [µM] | viability of HSC3 cells ([3]; 18 and 36 µM, 24, 48 and 72 h, vs 0.2% DMSO) | IC50 [4] [µM] | cell morphology (FSC/SSC) ([5]; HSC3, 18 and 36 µM, 24, 48 and 72 h) | cells in the sub-G0/G1 phase ([6]; 36 µM, 24 and 48 h, vs DMSO 0.2%) | percentage of HSC3 cells in the sub-G0/G1 phase ([6]; 36 µM, 12 h) | number of cells in the G0-G1 phase ([6]; 36 µM, from 12 h forward) | cells in S and G2/M phases ([6]; 18 and 36 µM) | IC50 [7] [µM]
O=c1[nH]cc(F)c(=O)[nH]1 [5-FU, 5-fluorouracil] | significantly increased cell apoptosis | 143 | reduced the number of viable cells | 18.1 | changes consistent with apoptotic death | significantly lower numbers of cells | > 192 |  |  |  |  |  |  |  |  |  |  | 
CN(C)c1ccccc1CN1CCCN(Cc2ccccc2N(C)C)C1c1ccncc1 [GANT61] |  |  |  |  |  |  |  | significantly increased cell apoptosis | significantly higher exposure of phosphatidylserine | 83.5 | significantly reduce the viability | > 116 | cell shrinkage | significantly higher numbers of cells | significant increase | significant decrease | significantly lower numbers of cells | 3.67
